In US7364741B1, “Peptides of human Papilloma virus for use in human T cell response inducing compositions” (priority 1992, dated 2008):

Legend:
HLA-A1 = target: T1, HLA-A1 (Homo sapiens, UniProt P04439, A114D/A174V/A182V/D101N/E190D/Q94H/R68K/S129P/V100A/V91M/W191G); assay: Immunochemical peptide-MHC binding assay, purified HLA-A1, radiolabeled probe YLEPAIAKY; settings: IC50 of standard divided by IC50 of tested peptide, cysteines synthesized as alanine
T1 construct: endogenous in cells; host or cells: EBV transformed cell line Steinlin (protein purified from NP40 lysate)
Text: (§1) The method utilizes purified class I molecules and radiolabeled synthetic probes based on consensus peptides. Competitor peptides tested for their binding to the class I molecules compete for this binding with the radiolabeled consensus peptides. The HLA-A1, A2.1, A3.2, A11.2, and A24 molecules were isolated from the following cell lines, respectively: the EBV (Eppstein Barr Virus) transformed cell line Steinlin, the EBV transformed cell line JY, the EBV transformed cell line GM3107, the cell line BVR and the EBV transformed cell line KT3. After large scale culture, cells were lysed in NP40 (Fluka Biochemika, Buchs, Switzerland) and the lysate was passed over two pre-columns of inactivated sepharose CL 4B and Prot A Sepharose. Class I molecules were then purified from the cell lysate by affinity chromatography using Prot A Sepharose beads conjugated with B2.23.2 (anti-HLA-B and HLA-C) and anti-human HLA. The lysate was first depleted of B and C molecules by repeated passage over the B2.23.2 column.
(§2) After two days at 23° C. the percent of MHC-bound radioactivity was measured by size exclusion chromatography on a TSK2000 gel filtration as described by Sette et al. (1992).
(§3) Probe peptides were iodinated by using the Chloramine T method described by Buus et al. (1987). The sequences of the probe peptides used for the aforementioned HLA molecules were […] (SEQ ID NO:76) for A1, […] (SEQ ID NO:77) for A2.1, […] (SEQ ID NO:78) for A3.2, […] (SEQ ID NO:79) for A11.2, and […] (SEQ ID NO:80) for A24.
(§4) Each competitor peptide was tested in two to four completely independent experiments. Since cysteine containing peptides are susceptible to (air) oxidation during synthesis and handling, these peptides were synthesized with an alanine instead of a cysteine.

HLA-A24 = assay: Immunochemical peptide-MHC binding assay, purified HLA-A24, radiolabeled probe AYIDNYNKF; set-up: species or system human; settings: IC50 of standard divided by IC50 of tested peptide, cysteines synthesized as alanine
Text: as §1, §2, §3, §4

HLA-A2.1 = target: T2, HLA-A2.1 (Homo sapiens, UniProt P04439, D140Y/D185E/D98H/E176V/E277Q/G131W/G231S/I119V/I121R/I166T/I218V/L300P/L318F/N151K/N90K/P208A/P217A/Q86G/Q94H/R138H/R169H/T345S); type: cell-based; settings: HPV16 peptides, 200 μg/ml peptide, 16 hours, 174CEM.T2 cells; for FI (Fluorescence Index): background set on 0, binding positive when ≧0.5
T2 construct: endogenous in cells; host or cells: 174CEM.T2
Experimental: Of all peptides a dilution of 1 mg/ml in 0.9% NaCl was made.
174CEM.T2 cells were cultured in Iscovel's modified Dulbecco's medium (Biochrom KG Seromed Berlin, Germany: F0465) supplemented with 100 IU/ml penicillin (Biocades Pharma, Leiderdorp, The Netherlands), 100 μg/ml kanamycin (Sigma St. Louis, USA:K-0254), 2 mM glutamine (ICN Biomedicals Inc. Costa Mesa, Calif., USA:15-801-55) and 10% fetal calf serum (FCS, Hyclone Laboratories Inc. Logan, Utah, USA:A-1115-L). Cells were cultured at a density of 2.5×10^5/ml during 3 days at 37° C., 5% CO2 in humified air.
174CEM.T2 cells were washed twice in culture medium without FCS and put in serum-free culture medium to a density of 2×10^6 cells/ml. Of this suspension 40 μl was put into a V bottomed 96 well plate (Greiner GmbH, Frickenhausen, Germany: 651101) together with 10 μl of the individual peptide dilutions (of 1 mg/ml). The end concentration is 200 μg/ml peptide with 8×10^4 174CEM.T2 cells. This solution was gently agitated for 3 minutes after which an incubation time of 16 hours at 37° C., 5% CO2 in humified air took place. Then cells were washed once with 100 μl 0.9% NaCl, 0.5% bovine serum albumin (Sigma St. Louis, USA: A-7409), 0.02% NaN3 (Merck Darmstadt, Germany:822335). After a centrifuge round of 1200 rpm the pellet was resuspended in 50 μl of saturating amounts of HLA-A2.1 specific mouse monoclonal antibody BB7.2 for 30 minutes at 4° C. Then cells were washed twice and incubated for 30 minutes with F(ab)2 fragments of goat anti-mouse IgG that had been conjugated with […] (Tago Inc Burlingame, Calif., USA: 4350) in a dilution of 1:40 and a total volume of 25 μl.
After the last incubation, cells were washed twice and fluorescence was measured at 488 nanometer on a FACScan flow-cytometer (Becton Dickinson, Franklin Lakes, N.J., USA).
The 174CEM.T2 cell line expresses “empty” and unstable HLA-A2.1 molecules that can be stabilized when a peptide is binding to the peptide presenting groove of these molecules. […] This leads to an increase in cell surface expression of the HLA-A2.1 molecule.
With background fluorescence level (without adding peptides) set on a Fluorescence Index level of 0, binding of a peptide was regarded positive when the level of fluorescence was ≧0.5.

HLA-A3.2 = target: T3, HLA-A3.2 (Homo sapiens, UniProt P04439); type: binding; settings: HLA-A3.2; IC50 of standard divided by IC50 of tested peptide; cysteines synthesized as alanine
T3 construct: endogenous in cells; host or cells: EBV transformed cell line GM3107 (protein purified from NP40 lysate)
T3 sequence (P04439 25-365): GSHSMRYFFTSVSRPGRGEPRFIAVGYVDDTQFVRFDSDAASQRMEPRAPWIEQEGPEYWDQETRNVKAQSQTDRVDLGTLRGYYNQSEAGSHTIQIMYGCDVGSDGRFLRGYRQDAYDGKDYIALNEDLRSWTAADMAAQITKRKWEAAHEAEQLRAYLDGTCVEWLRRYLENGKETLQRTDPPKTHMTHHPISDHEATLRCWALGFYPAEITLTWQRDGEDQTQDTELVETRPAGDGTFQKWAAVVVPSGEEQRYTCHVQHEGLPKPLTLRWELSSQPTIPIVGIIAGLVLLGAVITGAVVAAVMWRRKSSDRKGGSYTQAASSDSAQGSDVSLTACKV
T3 sequence (P61769 21-119, further chain): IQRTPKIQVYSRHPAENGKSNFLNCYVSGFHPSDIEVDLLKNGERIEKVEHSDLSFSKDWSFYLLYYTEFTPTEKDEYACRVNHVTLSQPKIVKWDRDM
Text: as §1, §2, §3, §4

HLA-A11.2 = assay: Immunochemical peptide-MHC binding assay, purified HLA-A11.2, radiolabeled probe […]; set-up: species or system human; settings: IC50 of standard divided by IC50 of tested peptide, cysteines synthesized as alanine
Text: as §1, §2, §3, §4

Sequence | binding ratio to standard (HLA-A24) | binding ratio to standard (HLA-A3.2) | binding ratio to standard (HLA-A11.2) | other results
EIDGPAGQA [residues 37-45 of HPV16 protein E7] | – | – | – | binding ratio to standard (HLA-A1): 0.025
MHQKRTAMF [residues 1-9 of HPV16 protein E6] | 0.0049 | – | – | –
PYAVCDKCL [residues 66-74 of HPV16 protein E6] | 0.0055 | – | – | –
CVYCKQQLL [HPV16 peptide 8, residues 37-45 of HPV16 protein E6] | – | 0.0320 | 0.0450 | MF (mean HLA-A2.1 fluorescence) (HLA-A2.1): 195.0; FI (Fluorescence Index) (HLA-A2.1): 2.0
LLRREVYDF [residues 44-52 of HPV16 protein E6] | 0.0023 | – | – | –
KCLKFYSKI [residues 72-80 of HPV16 protein E6] | 0.1100 | – | – | –
HYCYSLYGT [residues 85-93 of HPV16 protein E6] | 0.0037 | – | – | –
TTDLYCYEQ [residues 19-27 of HPV16 protein E7] | – | – | – | binding ratio to standard (HLA-A1): 0.023
YRDGNPYAV [residues 61-69 of HPV16 protein E6] | – | – | – | binding ratio to standard (HLA-A1): 0.008
RAHYNIVTF [residues 49-57 of HPV16 protein E7] | 0.0670 | – | – | –
VYCKQQLLR [residues 38-46 of HPV16 protein E6] | 0.0011 | 0.0012 | 0.0022 | –
WTGRCMSCC [residues 139-147 of HPV16 protein E6] | – | – | – | binding ratio to standard (HLA-A1): 0.020
CYSLYGTTL [residues 87-95 of HPV16 protein E6] | 0.1200 | – | – | –
KISEYRHYC [HPV16 peptide 9, residues 79-87 of HPV16 protein E6] | – | 0.0044 | 0.0076 | MF (mean HLA-A2.1 fluorescence) (HLA-A2.1): 211.7; FI (Fluorescence Index) (HLA-A2.1): 2.2
RFHNIRGRW [residues 131-139 of HPV16 protein E6] | 0.1000 | – | – | –
SCCRSSRTR [residues 145-153 of HPV16 protein E6] | – | 0.0200 | 0.0330 | –
ISEYRHYCY [residues 80-88 of HPV16 protein E6] | – | 0.0064 | 0.4300 | –
QQLLRREVY [residues 42-50 of HPV16 protein E6] | – | 0.0058 | 0.0084 | –
VYDFAFRDL [residues 49-57 of HPV16 protein E6] | 0.0610 | – | – | –
HYNIVTFCC [residues 51-59 of HPV16 protein E7] | – | 0.0260 | 0.0010 | –
EYRHYCYSL [residues 82-90 of HPV16 protein E6] | 0.0460 | – | – | –
AVCDKCLKF [residues 68-76 of HPV16 protein E6] | – | 0.0056 | 0.0037 | –
YAVCDKCLK [residues 67-75 of HPV16 protein E6] | – | 0.0012 | 0.0074 | –
VCDKCLKFY [residues 69-77 of HPV16 protein E6] | – | 0.0025 | 0.0030 | –
MSCCRSSRT | – | – | – | binding ratio to standard (HLA-A1): 0.019
HVDIRTLED [residues 73-81 of HPV16 protein E7] | – | – | – | binding ratio to standard (HLA-A1): 0.014
